# Read-outs that look alike come from different tables or passages of the source.
# Assays:
# Format in all cases: cell-based
# [1] = tested on: K. pneumoniae (ATCC10031); test: 50% growth inhibitory concentration (IC50) determination assay, K. pneumoniae; conditions: Klebsiella pneumoniae, read-out: IC50 (μM) K. pneumoniae ATCC10031
# Experimental: (§1) The in vitro antimicrobial activity of the compounds against E. coli (BW25113, obtained from Coli Genetic Stock Center, #7636) and K. pneumoniae (ATCC10031) was determined according to the following procedure:
# (§2) The assay used a 10-points Iso-Sensitest broth medium to measure quantitatively the in vitro activity of the compounds against E. coli BW25113 and K. pneumoniae ATCC 10031.
# (§3) Stock compounds in DMSO were serially two-fold diluted (range from 50 to 0.097 μM final concentration) in 384 wells microtiter plates and inoculated with 49 μL the bacterial suspension in Iso-Sensitest broth medium to have a final cell concentration of ˜5×10^5 CFU/mL in a final volume/well of 50 μL/well. Microtiter plates were incubated at 35±2° C.
# (§4) Bacterial cell growth was determined with the measurement of optical density at λ=600 nm each 20 minutes over a time course of 16 h.
# (§5) Growth inhibition was calculated during the logarithmic growth of the bacterial cells with determination of the concentration inhibiting 50% (IC50) of the growth.
# E. coli (BW25113) = test: 50% growth inhibitory concentration (IC50) determination assay, E. coli; conditions: Escherichia coli, read-out: IC50 (μM) E. coli K12 BW25113
# Experimental: as §1, §2, §3, §4, §5
# E. coli (ATCC 25922) = test: Minimal Inhibitory Concentration (MIC) assay; conditions: Escherichia coli, ATCC25922; CAMHB, 20 hours at 35° C.; read-out: MIC (μg/mL) E. coli ATCC 25922
# Experimental: The in vitro potency of compounds to inhibit E. coli (ATCC 25922) growth was assessed by MIC (Minimal Inhibitory Concentration) assay. Samples were prepared from 10 mM DMSO stock solutions. After serial 2-fold dilution in DMSO in a master plate (Greiner, Cat No: 651201), 180 μL sterile distilled water was added to 20 μL each aliquot of the samples. Then 10 μL diluted compounds were transferred into a new assay plate (Costar, 3599).
# The growth medium […] Mueller Hinton Broth (CAMHB) was prepared by adding the 20 mg per liter CaCl2 and 20 mg per liter MgCl2 into the MHB medium (Jianglai Company, sterilized).
# Vials of each of the test microorganisms were maintained frozen in the vapor phase of a liquid nitrogen freezer. Took out the bacteria E. coli ATCC 25922 (KWIKSTIK, 0335K) from liquid nitrogen freezer, thawed it in room temperature, and diluted the bacterial in the CAMHB medium to achieve a final inoculum of 5×10^5 CFU/mL, 90 μL CAMHB with bacteria was dispensed to the assay plate and pipetted 5 times.
# Then the assay plates were incubated for 20 hours at 35° C. in ambient air. Following incubation, the MIC (μg/mL), the lowest concentration of drug that inhibits visible growth of the microorganism was read and recorded throw the microscope.
# [2] = ATCC10031, growth inhibition, Iso-Sensitest broth, OD 600 nm over 16 h, * = detection limit
# [3] = BW25113, growth inhibition, Iso-Sensitest broth, OD 600 nm over 16 h
SMILES,"IC50 [1, 2]",IC50 (E. coli (BW25113); [3]),MIC (E. coli (ATCC 25922)),"IC50 ([1]; ATCC10031, 16 h)","IC50 (E. coli (BW25113); BW25113, 16 h)"
"CNc1cc(F)cc2c1[nH]c1ncc(-c3cnc(OC)nc3)c(-n3ccc(C(F)(F)F)n3)c12 [Example 1.02, 6-Fluoro-3-(2-methoxypyrimidin-5-yl)-N-methyl-4-[3-(trifluoromethyl)pyrazol-1-yl]-9H-pyrido[2,3-b]indol-8-amine]",0.108 µM,1.62 µM,,,
"CCNc1cc(F)cc2c1[nH]c1ncc(-c3cncc(C#N)c3)c(-n3cc(C(F)(F)F)cn3)c12 [Example 1.03, 5-[8-(Ethylamino)-6-fluoro-4-[4-(trifluoromethyl)pyrazol-1-yl]-9H-pyrido[2,3-b]indol-3-yl]pyridine-3-carbonitrile]",0.206 µM,1.61 µM,0.679 µg/mL,,
"CCNc1cc(F)cc2c1[nH]c1ncc(-c3cnc(OC)nc3)c(-n3ccc(C(F)(F)F)n3)c12 [Example 1.04, N-Ethyl-6-fluoro-3-(2-methoxypyrimidin-5-yl)-4-[3-(trifluoromethyl)pyrazol-1-yl]-9H-pyrido[2,3-b]indol-8-amine]",0.13 µM,1.56 µM,0.552 µg/mL,,
"CCNc1cc(F)cc2c1[nH]c1ncc(-c3cncc(C#N)c3)c(-n3ccc(C#N)n3)c12 [Example 1.05, 5-[4-(3-Cyanopyrazol-1-yl)-8-(ethylamino)-6-fluoro-9H-pyrido[2,3-b]indol-3-yl]pyridine-3-carbonitrile]",≤ 0.098 µM,0.701 µM,0.314 µg/mL,,
"CCNc1cc(F)cc2c1[nH]c1ncc(-c3cnc(N)nc3)c(-n3ccc(C(F)(F)F)n3)c12 [Example 1.06, 3-(2-Aminopyrimidin-5-yl)-N-ethyl-6-fluoro-4-[3-(trifluoromethyl)pyrazol-1-yl]-9H-pyrido[2,3-b]indol-8-amine]",≤ 0.098 µM,0.495 µM,0.267 µg/mL,,
"CNc1cc(F)cc2c1[nH]c1ncc(-c3cncc(C#N)c3)c(-n3cc(C(F)(F)F)cn3)c12 [Example 1.08, 5-[6-Fluoro-8-(methylamino)-4-[4-(trifluoromethyl)pyrazol-1-yl]-9H-pyrido[2,3-b]indol-3-yl]pyridine-3-carbonitrile]",0.102 µM,1.25 µM,,,
"CCNc1cc(F)cc2c1[nH]c1ncc(-c3cnc4cccnc4c3)c(-n3ccc(C(F)(F)F)n3)c12 [Example 1.11, N-Ethyl-6-fluoro-3-(1,5-naphthyridin-3-yl)-4-[3-(trifluoromethyl)pyrazol-1-yl]-9H-pyrido[2,3-b]indol-8-amine]",0.208 µM,0.803 µM,0.288 µg/mL,,
"CCNc1cc(F)cc2c1[nH]c1ncc(-c3cnc(NCCOC)nc3)c(-n3ccc(C(F)(F)F)n3)c12 [Example 1.13, N-Ethyl-6-fluoro-3-[2-(2-methoxyethylamino)pyrimidin-5-yl]-4-[3-(trifluoromethyl)pyrazol-1-yl]-9H-pyrido[2,3-b]indol-8-amine]",0.287 µM,1.77 µM,,,
"CCNc1cc(F)cc2c1[nH]c1ncc(-c3cnc(OC4CCNC4)nc3)c(-n3ccc(C(F)(F)F)n3)c12 (centres unmarked) [Example 1.20, N-Ethyl-6-fluoro-3-(2-pyrrolidin-3-yloxypyrimidin-5-yl)-4-[3-(trifluoromethyl)pyrazol-1-yl]-9H-pyrido[2,3-b]indol-8-amine]",,,,≤ 0.098 µM,1.48 µM
"CCNc1cc(F)cc2c1[nH]c1ncc(-c3cnc(OC4CNC4)nc3)c(-n3ccc(C(F)(F)F)n3)c12 [Example 1.23, 3-[2-(Azetidin-3-yloxy)pyrimidin-5-yl]-N-ethyl-6-fluoro-4-[3-(trifluoromethyl)pyrazol-1-yl]-9H-pyrido[2,3-b]indol-8-amine]",≤ 0.098 µM,1.98 µM,,,
"CCNc1cc(F)cc2c1[nH]c1ncc(-c3cnc(NC4CCOC4)nc3)c(-n3ccc(C(F)(F)F)n3)c12 (centres unmarked) [Example 1.25, N-Ethyl-6-fluoro-3-[2-(tetrahydrofuran-3-ylamino)pyrimidin-5-yl]-4-[3-(trifluoromethyl)pyrazol-1-yl]-9H-pyrido[2,3-b]indol-8-amine]",,,0.751 µg/mL,,
"CCNc1cc(F)cc2c1[nH]c1ncc(-c3cnc(OCC(C)(C)N)nc3)c(-n3ccc(C(F)(F)F)n3)c12 [Example 1.30, 3-[2-(2-Amino-2-methyl-propoxy)pyrimidin-5-yl]-N-ethyl-6-fluoro-4-[3-(trifluoromethyl)pyrazol-1-yl]-9H-pyrido[2,3-b]indol-8-amine]",0.159 µM,1.56 µM,,,
"CCNc1cc(F)cc2c1[nH]c1ncc(-c3cncc(CO)c3)c(-n3ccc(C(F)(F)F)n3)c12 [Example 1.36, [5-[8-(Ethylamino)-6-fluoro-4-[3-(trifluoromethyl)pyrazol-1-yl]-9H-pyrido[2,3-b]indol-3-yl]-3-pyridyl]methanol]",≤ 0.098 µM,0.928 µM,,,
"CCc1ncc(-c2cnc3[nH]c4c(NC)cc(F)cc4c3c2-n2ccc(C(F)(F)F)n2)cn1 [Example 1.47, 3-(2-Ethylpyrimidin-5-yl)-6-fluoro-N-methyl-4-[3-(trifluoromethyl)pyrazol-1-yl]-9H-pyrido[2,3-b]indol-8-amine]",0.105 µM,1.29 µM,,,
"CCNc1cc(F)cc2c1[nH]c1ncc(-c3cnc(N4CCNCC4)nc3)c(-n3ccc(C(F)(F)F)n3)c12 [Example 1.52, N-ethyl-6-fluoro-3-(2-piperazin-1-ylpyrimidin-5-yl)-4-[3-(trifluoromethyl)pyrazol-1-yl]-9H-pyrido[2,3-b]indol-8-amine]",0.146 µM,1.22 µM,,,
"CCNc1cc(F)cc2c1[nH]c1ncc(-c3cnc(O[C@@H]4CCNC4)nc3)c(-n3ccc(C(F)(F)F)n3)c12 [Example 1.55, N-ethyl-6-fluoro-3-[2-[(3R)-pyrrolidin-3-yl]oxypyrimidin-5-yl]-4-[3-(trifluoromethyl)pyrazol-1-yl]-9H-pyrido[2,3-b]indol-8-amine]",,,,≤ 0.098 µM,1.03 µM
"CCNc1cc(F)cc2c1[nH]c1ncc(-c3cnc(O[C@H]4CCNC4)nc3)c(-n3ccc(C(F)(F)F)n3)c12 [Example 1.56, N-ethyl-6-fluoro-3-[2-[(3S)-pyrrolidin-3-yl]oxypyrimidin-5-yl]-4-[3-(trifluoromethyl)pyrazol-1-yl]-9H-pyrido[2,3-b]indol-8-amine]",,,,≤ 0.098 µM,1 µM
"CCNc1cc(F)cc2c1[nH]c1ncc(-c3cncc(Cc4nnc(C)o4)c3)c(-n3ccc(C(F)(F)F)n3)c12 [Example 1.58, N-ethyl-6-fluoro-3-[5-[(5-methyl-1,3,4-oxadiazol-2-yl)methyl]-3-pyridyl]-4-[3-(trifluoromethyl)pyrazol-1-yl]-9H-pyrido[2,3-b]indol-8-amine]",≤ 0.098 µM,1.52 µM,,,
"CCNc1cc(F)cc2c1[nH]c1ncc(-c3cnc4c(C#N)cnn4c3)c(-n3ccc(C(F)(F)F)n3)c12 [Example 1.59, 6-[8-(ethylamino)-6-fluoro-4-[3-(trifluoromethyl)pyrazol-1-yl]-9H-pyrido[2,3-b]indol-3-yl]pyrazolo[1,5-a]pyrimidine-3-carbonitrile]",0.368 µM,1.87 µM,,,
"CCNc1cc(F)cc2c1[nH]c1ncc(-c3cncc(C(=O)NC4(COC)CC4)c3)c(-n3ccc(C(F)(F)F)n3)c12 [Example 3.07, 5-[8-(ethylamino)-6-fluoro-4-[3-(trifluoromethyl)pyrazol-1-yl]-9H-pyrido[2,3-b]indol-3-yl]-N-[1-(methoxymethyl)cyclopropyl]pyridine-3-carboxamide]",,,0.767 µg/mL,,
"CCNc1cc(F)cc2c1[nH]c1ncc(-c3cncc(C#N)c3)c(-n3cc(C(N)=O)c(C(F)(F)F)n3)c12 [Example 4.01, 1-(3-(5-Cyanopyridin-3-yl)-8-(ethylamino)-6-fluoro-9H-pyrido[2,3-b]indol-4-yl)-3-(trifluoromethyl)-1H-pyrazole-4-carboxamide]",≤ 0.098 µM,1.74 µM,,,
"CCNc1cc(F)cc2c1[nH]c1ncc(-c3cncc(C#N)c3)c(-n3cc(CO)c(C(F)(F)F)n3)c12 [Example 5.01, 5-[8-(ethylamino)-6-fluoro-4-[4-(hydroxymethyl)-3-(trifluoromethyl)pyrazol-1-yl]-9H-pyrido[2,3-b]indol-3-yl]pyridine-3-carbonitrile]",≤ 0.098 µM,0.971 µM,,,
